US20260234146A1, “Use of Hypoxia-Inducible Factor-Prolyl Hydroxylase Inhibitor (HIF-PHI) in Rare Anemia” (Kind Pharmaceutical, priority 2023, published 2026)

Experiments:
MDS model mice = assay: Effect on MDS model mice (RBC, Hb, HCT); type: in vivo, C57 mice
Procedure: Throughout the experimental stage, animals were housed in cages in an animal room with 24-hour continuous central air conditioning, temperature set at 20-26° C., relative air humidity set at 40-70%, and a 12-hour light/dark cycle. All animals had free access to food and sterilized drinking water. The C57 mice used in the experiment contained three knocked-in genes in their genome: Vav1-Cre, LSL, and c-Myc(T58A/S62E). Only animals positive for all three genes were used in the experiment. Expression of Vav1-Cre can induce cleavage at the LSL site, thereby allowing tTA gene expression. After induction with Doxycycline, tTA can bind to promoter of the c-Myc(T58A/S62E) gene, driving its expression, so that the animals develop an MDS phenotype. When the mice reached approximately 8 weeks of age, modeling commenced. They were fed a special diet (containing 200 mg doxycycline per kg of feed) for 4 weeks. Mice were anesthetized on days 0, 14, and 28, and 70 μl of blood was collected from the orbit to measure RBC, Hb, and HCT levels, confirming successful establishment of the MDS model. Subsequently, the mice were randomly divided into 3 groups, with 10 mice per group: Vehicle control group (0.1 M meglumine), Comp-1 low-dose group (10 mg/kg), and Comp-1 high-dose group (30 mg/kg). The dosing or vehicle volume was 6.67 mL/kg. The dosing or vehicle frequency for each group was oral gavage three times per week (TIW) for 4 consecutive weeks. That is, from week 4 to week 8 constituted the treatment period. Mice were anesthetized 14 days (experimental week 6) and 28 days (experimental week 8) after the start of dosing, and 70 μl of blood was collected from the orbit. Collected blood samples were placed in heparin-anticoagulant tubes, and RBC, Hb, and HCT levels in the blood were measured. After blood collection at the final time point for each animal, the animals were euthanized, and corresponding organ tissues were collected for storage and potential future use. Detection instrument: Element HT5 Veterinary Hematology Analyzer; Supplier: HESKA. Data analysis was performed using GraphPad Prism 9.0.

Townes SCD model mouse = assay: Effect on SCD anemia mice (RBC, Hb, HCT); type: in vivo
Procedure: Throughout the experimental stage, animals were housed in cages in an animal room with 24-hour continuous central air conditioning, temperature set at 20-26° C., relative air humidity set at 40-70%, and a 12-hour light/dark cycle. All animals had free access to food and sterilized drinking water. The animal strain was B6·Cg-Hbb^tm2(HBG1,HBB)Tow/Hbat^ml(HBA)Tow/ShmtJ mice, a Townes SCD model mouse where mouse endogenous hemoglobin is replaced by knocked-in human hemoglobin. Two weeks after birth, mice were ear-punched for identification, and the ear tissue was collected for PCR analysis to determine its genotype. Mice confirmed as B6·Cg-Hbb^tm2(HBG1,HBB)Tow/Hbat^ml(HBA)Tow/ShmtJ were grouped. […] Blood sampling was performed every other week. Mice showing symptoms of anemia were selected for dosing. Animals were randomly divided into groups, 6 animals per group: Vehicle control group (0.1 M meglumine aqueous solution; oral gavage; volume: 6.67 mL/kg), Comp-1 group (30 mpk; oral gavage; volume: 6.67 mL/kg), and EPO group (50 U/30 g body weight; SC injection; MyBioSource, cat. #: MBS650094, erythropoietin alpha). Dosing was administered three times a week (TIW) for 4 consecutive weeks. On days 14 and 28 of dosing, 70 μL of blood was collected from orbit. Collected blood samples were placed in heparin-anticoagulant tubes. 15 μL of the blood sample from the anticoagulant tube was aspirated and added to an Element HT5 Veterinary Hematology Analyzer. RBC, Hb, and HCT in the blood were measured according to the instrument's operating instructions. Data analysis was performed using GraphPad Prism 9.0. […]

[1] = 10 mg/kg group, Before dosing Week 4
[2] = 10 mg/kg group, Pre-modeling Week 0
[3] = 10 mg/kg oral TIW, After 2 weeks of dosing Week 6
[4] = 10 mg/kg oral TIW, After 4 weeks of dosing Week 8
[5] = 30 mg/kg group, Before dosing Week 4
[6] = 30 mg/kg group, Pre-modeling Week 0
[7] = 30 mg/kg oral TIW, After 2 weeks of dosing Week 6
[8] = 30 mg/kg oral TIW, After 4 weeks of dosing Week 8
[9] = 30 mg/kg group, Before dosing Week 0
[10] = 30 mg/kg oral TIW, After 2 weeks of dosing Week 2
[11] = 30 mg/kg oral TIW, After 4 weeks of dosing Week 4

SMILES: O=C(O)CNC(=O)C1=C(O)C2(CCCC2)n2c(ccc2-c2ccccc2)C1=O [Comp-1, (6′-hydroxy-8′-oxo-3′-phenyl-8′H-spiro[cyclopentane-1,5′-indolizine]-7′-carbonyl)glycine]
- HCT Hematocrit (MDS model mice; [1]): 28.12%
- Hb Hemoglobin content (MDS model mice; [1]): 9.52 g/dL
- RBC Red Blood Cell Count (MDS model mice; [1]): 6.03 M/μL
- HCT Hematocrit (MDS model mice; [2]): 43.35%
- Hb Hemoglobin content (MDS model mice; [2]): 14.90 g/dL
- RBC Red Blood Cell Count (MDS model mice; [2]): 9.00 M/μL
- HCT Hematocrit (MDS model mice; [3]): 34.36%
- Hb Hemoglobin content (MDS model mice; [3]): 10.97 g/dL
- RBC Red Blood Cell Count (MDS model mice; [3]): 6.33 M/μL
- HCT Hematocrit (MDS model mice; [4]): 37.52%
- Hb Hemoglobin content (MDS model mice; [4]): 11.77 g/dL
- RBC Red Blood Cell Count (MDS model mice; [4]): 7.17 M/μL
- HCT Hematocrit (MDS model mice; [5]): 28.01%
- Hb Hemoglobin content (MDS model mice; [5]): 9.54 g/dL
- RBC Red Blood Cell Count (MDS model mice; [5]): 5.90 M/μL
- HCT Hematocrit (MDS model mice; [6]): 43.32%
- Hb Hemoglobin content (MDS model mice; [6]): 14.37 g/dL
- RBC Red Blood Cell Count (MDS model mice; [6]): 9.01 M/μL
- HCT Hematocrit (MDS model mice; [7]): 43.13%
- Hb Hemoglobin content (MDS model mice; [7]): 13.56 g/dL
- RBC Red Blood Cell Count (MDS model mice; [7]): 7.11 M/μL
- HCT Hematocrit (MDS model mice; [8]): 47.41%
- Hb Hemoglobin content (MDS model mice; [8]): 14.91 g/dL
- RBC Red Blood Cell Count (MDS model mice; [8]): 8.46 M/μL
- Arithmetic mean of HCT hematocrit (Townes SCD model mouse; [9]): 27.20%
- Arithmetic mean of HGB hemoglobin content (Townes SCD model mouse; [9]): 8.47 g/dL
- Arithmetic mean of RBC red blood cell count (Townes SCD model mouse; [9]): 6.34 M/μL
- Arithmetic mean of HCT hematocrit (Townes SCD model mouse; [10]): 40.05%
- Arithmetic mean of HGB hemoglobin content (Townes SCD model mouse; [10]): 11.63 g/dL
- Arithmetic mean of RBC red blood cell count (Townes SCD model mouse; [10]): 8.88 M/μL
- Arithmetic mean of HCT hematocrit (Townes SCD model mouse; [11]): 41.45%
- Arithmetic mean of HGB hemoglobin content (Townes SCD model mouse; [11]): 12.10 g/dL
- Arithmetic mean of RBC red blood cell count (Townes SCD model mouse; [11]): 9.09 M/μL
